The subject of one series is Pneumocystis carinii. The experiment in a line: Prophylaxis of Pneumocystis carinii pneumonitis in dexamethasone-treated rats, lung histopathology score. In kind it is in vivo. As to conditions: for No.with P. carinii Pneumonitis Total: per rats evaluated. On the procedure: A: 2-[trans-4-(4-chlorophenyl)cyclohexyl]-3-hydroxy-1,4-naphthoquinone B: 2-[cis-4-(4-chlorophenyl)cyclohexyl]-3-hydroxy-1,4-naphthoquinone C: 2-[4-(4-chlorophenyl)cyclohexyl]-3-chloro-1,4-naphthoquinone D: 2-(4-t-butylcyclohexyl)-3-hydroxy-1,4-naphthoquinone E: 2-(4-t-butylcyclohexylmethyl)-3-hydroxy-1,4-naphthoquinone a) Prophylaxis Groups of 10 rats were treated with dexamethasone to allow latent Pneumocystis carinii infection to develop. Tetracycline was also administered to protect against bacterial infections. Test compound A was administered, by gavage, from day 4 of the dexamethasone treatment, at a dose of 100 mg/kg/day. Two control groups of rats were treated with dexamethasone and tetracycline only. A further group of rats was given cotrimoxazole (trimethoprim + sulphamethoxazole, 50 + 250 mg/kg/day, orally) in place of the test compound. At the end of the test period the animals were sacrificed and autopsies carried out. The lungs were removed and the right lung bisected. An imprint was made onto microscope slides and stained with toluidine blue. One half of the lung was placed in formalin, processed in paraffin blocks, sectioned and stained by the Gomori methanamine silver nitrate method. After autopsy the extent of P.carinii pneumonitis was scored under coded study as none if no organism seen; 1+ if P.carinii cysts seen sparsely distributed with less than one per 25 high power field (h.p.f.); 2+ if focal areas of P.carinii pneumonitis surrounded by 10 to 25 h.p.f of normal lung and 3+ if lung diffusely and extensively involved with organisms in almost all h.p.f.s.
b) Prophylaxis A further series of tests was carried out using the same general method as described above. Test compound A was administered at various dose levels, by gavage and in the diet.

In the next series the test system is Plasmodium yoelii. In words: Activity against Plasmodium yoelii in vivo, tail-blood smears at 96 hours. Set-up: species or system mice. As to conditions: for ED50: Plasmodium yoelii, in Mus musculus, 96 h. The procedure: The naphthoquinone was suspended in 0.25% (w/v) celacol in water by milling for 16-24 hours at 26°C. The suspensions were subsequently serially diluted with 0.25% (w/v) celacol in water. At time 0, 0.1 ml of a suspension of 5x10⁶ P.yoelii-parasitised red blood cells/ml of phosphate saline were injected intravenously into 15-20 g mice through a tail vein. Groups of 5 mice per treatment were dosed orally at times 6, 22, 30, 46, 54, 70 and 78 hours with 0.2 ml of the drug suspension. The compound of Example 4 was also administered intravenously. Tail-blood smears were taken at 96 hours, stained with Giemsa and the percentage of red blood cells infected determined and compared to untreated, infected controls. Percent inhibition was correllated with dose to provide ED values.

The next series concerns Plasmodium Falciparum. The experiment in a line: Activity against Plasmodium falciparum in vitro, G-3H-hypoxanthine incorporation. The series is classed as cell-based. As to conditions: cultures incubated for 48 hours, RPMI 1640 medium + 10% human plasma, read-out: In vitro IC₅₀. On the procedure: The test method was modification of that described by Desjardins et al., Antimicrob. Agents and Chemotherapy 1979, 16, 710-718. Compounds were dissolved in ethanol at a concentration of 4.8x10⁻³M and dilutions down to 1x10⁻⁴M were made. The drug solutions were serially diluted using RPMI 1640 medium + 10% human plasma in microtitration plates. Parasitised and fresh red blood cells were added, together with G-³H-hypoxanthine, in RPMI 1640 medium + 10% human plasma and the cultures incubated for 48 hours. Cultures were then harvested, the particulate contents collected on a glass fibre filter paper and washed copiously with water. The filter papers were dried and the radioactivity measured using a scintillation counter. Infected untreated and uninfected untreated cultures were included as controls.

The nature of series [1]: Water-solubility compared with the parent compound. The series is classed as physicochemical. The conditions noted are these: as compared with the parent compound of formula (V).
Series [2] has as its system Pneumocystis carinii pneumonia. The conditions noted are these: cited from earlier work.
Setting [3] is: 100 mg per kg/day, gavage, group of 10 rats.
Where [4] appears, read: 100 mg per kg/day, gavage, group of 15 rats.
Setting [5] is: 100 mg/kg/day by gavage from day 4 of dexamethasone treatment.
[6] abbreviates: po, dosed orally at 6, 22, 30, 46, 54, 70 and 78 hours, read-out: In vivo ED₅₀ oral.

Like-named read-outs stand apart in the source and are kept apart here.

Take `O=C1C(O)=C([C@H]2CC[C@H](c3ccc(Cl)cc3)CC2)C(=O)c2ccccc21` [Example 1C, 2-[trans-4-(4-Chlorophenyl)cyclohexyl]-3-hydroxy-1,4-naphthoquinone]: in the series on Pneumocystis carinii (10 mg per kg/day, gavage), the “No.with P. carinii Pneumonitis 1+” value amounted to 1, the “No.with P. carinii Pneumonitis 2+” value stood at 0, the “No.with P. carinii Pneumonitis 3+” value worked out at 8 and the “No.with P. carinii Pneumonitis None” value turned out to be 1. Also, in the series on Pneumocystis carinii (10 mg per kg/day, gavage), the “No.with P. carinii Pneumonitis Total” value is listed as 9/10. In addition, in the series with Pneumocystis carinii (25 mg per kg/day, gavage), the “No.with P. carinii Pneumonitis 1+” value is recorded as 2, the “No.with P. carinii Pneumonitis 2+” value is on record as 1, the “No.with P. carinii Pneumonitis 3+” value is listed as 4 and the “No.with P. carinii Pneumonitis None” value was determined as 1. Moreover, the “No.with P. carinii Pneumonitis Total” value in the series on Pneumocystis carinii (25 mg per kg/day, gavage) is given as 7/8. In the series with Pneumocystis carinii (50 mg per kg/day, gavage), the “No.with P. carinii Pneumonitis 1+” value came to 0, the “No.with P. carinii Pneumonitis 2+” value is recorded as 1, the “No.with P. carinii Pneumonitis 3+” value came to 1 and the “No.with P. carinii Pneumonitis None” value worked out at 7. Besides, the “No.with P. carinii Pneumonitis Total” value in the series on Pneumocystis carinii (50 mg per kg/day, gavage) is 2/9. In the series on Pneumocystis carinii (setting [3]), the “No.with P. carinii Pneumonitis 1+” value worked out at 1, the “No.with P. carinii Pneumonitis 2+” value is reported as 0, the “No.with P. carinii Pneumonitis 3+” value was determined as 0 and the “No.with P. carinii Pneumonitis None” value is recorded as 8. For the same compound, the “No.with P. carinii Pneumonitis Total” value in the series on Pneumocystis carinii (setting [3]) is recorded as 1/9. Besides, in the series with Pneumocystis carinii (setting [4]), the “No.with P. carinii Pneumonitis 1+” value was 0, the “No.with P. carinii Pneumonitis 2+” value was 0, the “No.with P. carinii Pneumonitis 3+” value stood at 0 and the “No.with P. carinii Pneumonitis None” value is recorded as 9. Besides, in the series with Pneumocystis carinii (setting [4]), the “No.with P. carinii Pneumonitis Total” value is 0/9. In the series on Pneumocystis carinii (100 mg per kg/day, rations), the “No.with P. carinii Pneumonitis 1+” value was found to be 0, the “No.with P. carinii Pneumonitis 2+” value came out at 0, the “No.with P. carinii Pneumonitis 3+” value was 0 and the “No.with P. carinii Pneumonitis None” value worked out at 10. Besides, the “No.with P. carinii Pneumonitis Total” value in the series on Pneumocystis carinii (100 mg per kg/day, rations) is given as 0/10. Moreover, in the series with Pneumocystis carinii (setting [5]), the “No of rats with P.carinii Pneumonitis 1+” value came to 0, the “No of rats with P.carinii Pneumonitis 2+” value turned out to be 0, the “No of rats with P.carinii Pneumonitis 3+” value was found to be 0 and the “No of rats with P.carinii Pneumonitis None” value was found to be 8. Besides, the “No of rats with PCP/No of rats tested” value in the series with Pneumocystis carinii (setting [5]) is listed as 0/8. In addition, in the series on Pneumocystis carinii (200 mg per kg/day, rations), the “No.with P. carinii Pneumonitis 1+” value worked out at 0, the “No.with P. carinii Pneumonitis 2+” value is listed as 0, the “No.with P. carinii Pneumonitis 3+” value was 0 and the “No.with P. carinii Pneumonitis Total” value is reported as 0/9. In the series on Pneumocystis carinii (200 mg per kg/day, rations, Gomori-Grocott stain), the “No.with P. carinii Pneumonitis None” value came to 9. Further, in the series with Plasmodium yoelii (setting [6]), the ED50 worked out at 0.03 mg/kg. Moreover, the IC50 in the series on Plasmodium Falciparum was found to be 2 nM.

Consider `COC1=C([C@H]2CC[C@H](c3ccc(Cl)cc3)CC2)C(=O)c2ccccc2C1=O` [Example 2, 2-Methoxy-3-[trans-4-(4-chlorophenyl)cyclohexyl]-1,4-naphthoquinone], for which, in the series on Plasmodium yoelii (setting [6]), the ED50 was determined as 5.8 mg/kg. The IC50 in the series on Plasmodium Falciparum is 360 nM.

On to `NC1=C([C@H]2CC[C@H](c3ccc(Cl)cc3)CC2)C(=O)c2ccccc2C1=O` [Example 3, 2-Amino-3-[trans-4-(4-chlorophenyl)cyclohexyl]-1,4-naphthoquinone], for which the ED50 with Plasmodium yoelii (setting [6]) was 1.26 mg/kg. The IC50 with Plasmodium Falciparum worked out at 1140 nM.

For `CN(C)CCCOC1=C([C@H]2CC[C@H](c3ccc(Cl)cc3)CC2)C(=O)c2ccccc2C1=O.Cl` [Example 4, 2-[trans-4-(4-Chlorophenyl)cyclohexyl]-3-(3-dimethylaminopropoxy)-1,4-naphthoquinone hydrochloride], the ED50 with Plasmodium yoelii (iv, administered intravenously, read-out: In vivo ED₅₀ i.v.) worked out at 2.08 mg/kg; in the series with Plasmodium yoelii (setting [6]), 0.61 mg/kg. Besides, in the series on Plasmodium yoelii (dosed orally at 6, 22, 30, 46, 54, 70 and 78 hours, hydrochloride, 5760 min), the “In vivo ED₅₀ oral” value came out at 0.68 mg/kg. In addition, the IC50 in the series on Plasmodium Falciparum was 59 nM.

With `CC(=O)OC1=C([C@H]2CC[C@H](c3ccc(Cl)cc3)CC2)C(=O)c2ccccc2C1=O` [Example 5, 2-Acetoxy-3-[trans-4-(4-chlorophenyl)cyclohexyl]-1,4-naphthoquinone], in series [1], the water-solubility result is reported as “improved”. In addition, in the series with Plasmodium yoelii (setting [6]), the ED50 came to 0.12 mg/kg. Further, the IC50 with Plasmodium Falciparum was determined as 68 nM.

With `CCOC(=O)OC1=C([C@H]2CC[C@H](c3ccc(Cl)cc3)CC2)C(=O)c2ccccc2C1=O` [Example 6, 2-Ethoxycarbonyloxy-3-[trans-4-(4-chlorophenyl)cyclohexyl]-1,4 naphthoquinone], the ED50 in the series on Plasmodium yoelii (setting [6]) is 0.09 mg/kg. Moreover, in the series on Plasmodium Falciparum, the IC50 is 80 nM.

As to `CN(C)c1ccc(C(=O)OC2=C([C@H]3CC[C@H](c4ccc(Cl)cc4)CC3)C(=O)c3ccccc3C2=O)cc1` [Example 7, 2-[trans-4-(4-Chlorophenyl)cyclohexyl]-3-(4-dimethylaminobenzoyloxy)-1,4-naphthoquinone], in the series on Plasmodium yoelii (setting [6]), the ED50 amounted to 0.12 mg/kg. The IC50 in the series on Plasmodium Falciparum was 220 nM.

For `N=C(N)c1ccc(OCCCCCOc2ccc(C(=N)N)cc2)cc1` [pentamidine], the “incidence of adverse reactions” value in series [2] (AIDS patients) is “around 50%”. The “effective in AIDS patients” value in series [2] (treatment of Pneumocystis carinii pneumonia) is given as 50-70%.

The values above are taken from patent EP0580185A1, “Medicaments” (THE WELLCOME FOUNDATION LIMITED, priority 1988, dated 1990).
